Structures are written as SMILES. Where “and” joins values, the source holds several entries; their conditions need not be identical. Identical values can stand only once. A value given as a limit tells only on which side of the number the result lay.

Data set [1] concerns Salmonella typhimurium TA98. The experiment in a line: Ames assay, strain TA98. In kind it is cell-based. The note with it: for Doses at which precipitate was seen on the plates: Ames plates; for Mutagenic response (dose-related increase in revertant colonies): TA98, with and without metabolic activation; for Cytotoxicity to TA98: under any test condition.
The next data set has as its system human whole blood. The experiment in a line: In vitro methemoglobin assay. The data set is classed as cell-based.
Data set [2] deals with first stage trypanosome infection. The settings on record: i.p. 50 mg/kg/day for five days; cited from earlier work.
Data set [3] has as its system human liver cancer cell lines (HepG2, Hep3B, Huh7, PLC5). The experiment in a line: Cytotoxicity, panel of four human liver cancer cell lines. The data set is classed as cell-based. The settings on record: read-out: IC50 values, range over the panel of human liver cells.
Another data set deals with T. b. rhodesiense. The note with it: read-out: antitrypanosomal IC50; T. b. rhodesiense in vitro; cited from earlier work.
For the next data set, the system named is L6 rat myoblasts. The note with it: read-out: IC50 against the L6 cell line; L6 rat myoblasts in vitro; cited from earlier work.
The conditions of data set [4]: cited from earlier work.

Consider `COc1ccccc1CN1c2ccc(OC(C)=O)cc2C(C)=CC1(C)C` [OSU-75, 1-(2-methoxybenzyl)-1,2-dihydro-2,2,4-trimethylquinolin-6-yl acetate], for which, in data set [1], the “Doses at which precipitate was seen on the plates” value was at least 500 μg/plate, the “Mutagenic response (dose-related increase in revertant colonies)” value is “did not elicit a mutagenic response” and the “Cytotoxicity to TA98” value was “not cytotoxic”. Besides, in the data set with human whole blood (10 μM, 60 min, 37 °C), the Methemoglobin level is listed as 1.2%. The Methemoglobin level in the data set with human whole blood (50 μM, 60 min, 37 °C) turned out to be 3.8%. In addition, in data set [2], the “Outcome in murine first stage trypanosomiasis model” value is “resulted in cures”.
For the molecule `CC1=CC(C)(C)N(Cc2ccccc2)c2ccc(Cl)cc21` [JR-I-78, 1-benzyl-6-chloro-2,2,4-trimethyl-1,2-dihydroquinoline], in data set [1], the “Mutagenic response (dose-related increase in revertant colonies)” value was “did not elicit a mutagenic response” and the “Cytotoxicity to TA98” value is reported as “not cytotoxic”. This molecule also had a Methemoglobin level in the data set with human whole blood (10 μM, 60 min, 37 °C) of 0.8%. Besides, in the data set on human whole blood (50 μM, 60 min, 37 °C), the Methemoglobin level worked out at 0.8%.
On to `O=N[O-].[Na+]` [Sodium nitrite, reference compound], for which the Methemoglobin level is reported as 37.4% with human whole blood (5 mM, 10 min); 41.2% with human whole blood (5 mM, 30 min); 50.6% in the data set with human whole blood (5 mM, 60 min).
Consider `CC(=O)Oc1ccc2c(c1)C(C)=CC(C)(C)N2Cc1ccccc1` [OSU-40, 1-benzyl-1,2-dihydro-2,2,4-trimethylquinolin-6-yl acetate], for which the IC50 (as a rule, the concentration at which inhibition is half-maximal) in data set [3] is 8 to 36 µM; in the data set on T. b. rhodesiense, 0.012 µM; in the data set on L6 rat myoblasts it was 24 µM. For the same molecule, the Deacetylation in vivo result in data set [4] (preliminary pharmacokinetic studies in rats) is “rapidly deacetylated”.
Take `CC1=CC(C)(C)N(Cc2ccccc2)c2ccc(O)cc21.Cl` [OSU-36.HCl, 1-benzyl-1,2-dihydro-2,2,4-trimethylquinolin-6-ol hydrochloride]: in data set [1], the “Doses at which precipitate was seen on the plates” value is recorded as at least 500 μg/plate. For the same molecule, the “Mutagenic response (dose-related increase in revertant colonies)” value in data set [1] is “did not elicit a mutagenic response”. Moreover, the “Doses cytotoxic to the TA98 strain” value is at least 100 μg/plate in data set [1] (in the absence of metabolic activation) and at least 500 μg/plate in data set [1] (in the presence of metabolic activation). The Methemoglobin level with human whole blood (10 μM, 60 min, 37 °C) is reported as 2.1%; in the data set on human whole blood (50 μM, 60 min, 37 °C), 9.3%. The IC50 is 5.2 to 20 µM in data set [3], 0.013 µM in the data set on T. b. rhodesiense and 11 µM in the data set with L6 rat myoblasts. Also, the OSU-36 plasma concentration result in data set [4] (intravenous OSU-36.HCl 2 mg/kg, measured at 60 min, analyte OSU-36) was “approximately 150 ng/mL and ~ 0.53 μM”. Besides, the “Outcome in murine first stage trypanosomiasis model” value in data set [2] is on record as “resulted in cures”.

Values taken from publication PMC4229492 (International journal of toxicology, 2014).
